Measurements as given in patent US20250296910A1, “BENZAMIDE ENAMINONE DERIVATIVES AND METHODS OF USE THEREOF” (University of Maryland, Eastern Shore, priority 2022, published 2025).

How the values were obtained:
[1] = test system: maximal electroshock (MES) model; assay: maximal electroshock (MES) test (ETSP anticonvulsant screening); format: in vivo, Carworth Farms no. 1 (CF1) mice; conditions: ip, mice; for animals protected in MES model: 300 mg/kg
Experimental: (§1) Initial evaluation for anticonvulsant activity was done by the Epilepsy Therapy Screening Program Branch, National Institute of Neurological Disorders and Stroke. Phase I evaluation included three tests: maximal electroshock (MES), 6 Hz, and rotarod test for neurological toxicity (Tox). The studies were done in normal adult male Carworth Farms no. 1 (CF1) mice using four or more mice pre-test. Intraperitoneal (ip) administration of the test compounds was carried out as a suspension in 0.5% methylcellulose. The compounds were tested at doses ranging from 30 mg/kg to 300 mg/kg. The animals were pretreated with the test compound at time intervals of 0.5 h and 2 h. The rotarod neurologic toxicity test was completed at each dose and time point. The MES test is a high frequency (60 Hz), short duration ([…]) stimulus delivered through corneal electrodes in normal rodents while the 6 Hz 44 mA psychomotor test is a long duration (3 s) and low frequency (6 Hz). Compounds active in the MES Identification Phase tests are screened for their ability to block seizures induced in the 6 Hz psychomotor focal seizures animal model of epilepsy. The compounds effective in the 6-Hz model during the Identification phase become candidates for advanced screening in the Differentiation Phase.

6 Hz 44 mA animal model = assay: 6 Hz 44 mA psychomotor seizure test (ETSP anticonvulsant screening); format: in vivo, Carworth Farms no. 1 (CF1) mice; conditions: 300 mg/kg, ip, mice
Experimental: as §1

O=C1C=C(NC(=O)c2ccc(C(F)(F)F)cc2)CC(C(F)(F)F)C1 (stereo not shown) [Compound 7, N-(3-oxo-5-(trifluoromethyl)cyclohex-1-en-1-yl)-4 (trifluoro-methyl)-benzamide]
25%: protection in MES model ([1]; 100 mg/kg, after 2 h) | animals protected in MES model ([1]; 0.5 h) | animals protected in MES model ([1]; 2 h) | protection in 6 Hz 44 mA model (6 Hz 44 mA animal model)
